Measured values from patent US20240239755A1, “SUBSTITUTED PYRIDAZINONES, SALTS OR N-OXIDES THEREOF AND THEIR USE AS HERBICIDALLY ACTIVE SUBSTANCES” (Bayer Aktiengesellschaft, priority 2021, published 2024).

How the values were obtained:
Format in all cases: in vivo
[1] = system: Lolium rigidum (LOLRI); test: Herbicidal post-emergence action, 320 g/ha, LOLRI; settings: visual grading after ca. 3 weeks
Text: (§1) Seeds of mono- and dicotyledonous weed plants were sown in plastic pots (double sowings with one species of mono- and one species of dicotyledonous weed plants per pot), in sandy loam, covered with soil and grown under controlled growth conditions. 2 to 3 weeks after sowing, the test plants were sprayed in the single-leaf stage. The compounds according to the invention, formulated in the form of wettable powders (WP) or as emulsifiable concentrates (EC), were sprayed onto the green plant parts as an aqueous suspension or as an emulsion, with the addition of 0.5% of an additive, at an application rate of 600 litres of water per hectare (converted). The test plants were placed in the greenhouse for ca. 3 weeks under optimum growth conditions, and then the effect of the preparations was assessed visually in comparison with untreated controls (herbicidal effect in percent (%): 100% effect=plants have died, 0% effect=as control plants).
(§2) Tables D1 to D8 below, show the effects of selected compounds of the general formula (I) according to Table 1 on various harmful plants using an application rate corresponding to 320 g/ha obtained by the experimental procedure mentioned above.

[2] = system: Matricaria inodora (MATIN); test: Herbicidal post-emergence action, 1280 g/ha (Table B6); settings: visual assessment after ca. 3 weeks vs untreated controls
Text: as §1, with “plants). Tables B1 to B11 below, show the effects of selected compounds of the general formula (I) according to Table 1 on various harmful plants using an application rate corresponding to 1280 g/ha obtained by the experimental procedure mentioned above.” for “plants).”

[3] = system: Kochia scoparia (KCHSC); test: Herbicidal post-emergence action, 1280 g/ha (Table B4); settings: visual assessment after ca. 3 weeks vs untreated controls
Text: as §1, with “plants). Tables B1 to B11 below, show the effects of selected compounds of the general formula (I) according to Table 1 on various harmful plants using an application rate corresponding to 1280 g/ha obtained by the experimental procedure mentioned above.” for “plants).”

[4] = system: Matricaria inodora (MATIN); test: Herbicidal post-emergence action, 320 g/ha, MATIN; settings: visual grading after ca. 3 weeks
Text: as §1, §2

[5] = system: Abutilon theophrasti (ABUTH); test: Herbicidal post-emergence action, 1280 g/ha (Table B1); settings: visual assessment after ca. 3 weeks vs untreated controls
Text: as §1, with “plants). Tables B1 to B11 below, show the effects of selected compounds of the general formula (I) according to Table 1 on various harmful plants using an application rate corresponding to 1280 g/ha obtained by the experimental procedure mentioned above.” for “plants).”

[6] = system: Stellaria media (STEME); test: Herbicidal pre-emergence action, 1280 g/ha (Table A9); settings: visual grading after ca. 3 weeks vs untreated controls
Text: (§3) Seeds of mono- and dicotyledonous weed plants were sown in plastic pots (double sowings with one species of mono- and one species of dicotyledonous weed plants per pot), in sandy loam, and covered with soil. The compounds according to the invention, formulated in the form of wettable powders (WP) or as emulsifiable concentrates (EC), were applied to the surface of the covering soil as an aqueous suspension or as an emulsion, with the addition of 0.5% of an additive, at an application rate of 600 litres of water per hectare (converted). Following treatment, the pots were placed in a greenhouse and kept under optimum growth conditions for the test plants. The visual grading of the damage to the test plants was carried out after ca. 3 weeks in comparison to untreated controls (herbicidal effect in percent (%): 100% effect=plants have died, 0% effect=as control plants). Tables A1 to A11 below, show the effects of selected compounds of the general formula (I) according to Table 1 on various harmful plants and an application rate corresponding to 1280 g/ha obtained by the experimental procedure mentioned above.

[7] = system: Matricaria inodora (MATIN); test: Herbicidal pre-emergence action, 1280 g/ha (Table A6); settings: visual grading after ca. 3 weeks vs untreated controls
Text: as §3

[8] = system: Stellaria media (STEME); test: Herbicidal post-emergence action, 1280 g/ha (Table B9); settings: visual assessment after ca. 3 weeks vs untreated controls
Text: as §1, with “plants). Tables B1 to B11 below, show the effects of selected compounds of the general formula (I) according to Table 1 on various harmful plants using an application rate corresponding to 1280 g/ha obtained by the experimental procedure mentioned above.” for “plants).”

[9] = system: Veronica persica (VERPE); test: Herbicidal post-emergence action, 1280 g/ha, VERPE; settings: visual grading vs untreated controls
Text: as §1
(§4) Tables B1 to B11 below, show the effects of selected compounds of the general formula (I) according to Table 1 on various harmful plants using an application rate corresponding to 1280 g/ha obtained by the experimental procedure mentioned above.

[10] = system: Amaranthus retroflexus (AMARE); test: Herbicidal post-emergence action, 320 g/ha, AMARE; settings: visual grading after ca. 3 weeks
Text: as §1, §2

[11] = system: Stellaria media (STEME); test: Herbicidal post-emergence action, 320 g/ha, STEME; settings: visual grading after ca. 3 weeks
Text: as §1, §2

[12] = system: Lolium rigidum (LOLRI); test: Herbicidal post-emergence action, 1280 g/ha (Table B5); settings: visual assessment after ca. 3 weeks vs untreated controls
Text: as §1, with “plants). Tables B1 to B11 below, show the effects of selected compounds of the general formula (I) according to Table 1 on various harmful plants using an application rate corresponding to 1280 g/ha obtained by the experimental procedure mentioned above.” for “plants).”

[13] = system: Lolium rigidum (LOLRI); test: Herbicidal pre-emergence action, 1280 g/ha (Table A5); settings: visual grading after ca. 3 weeks vs untreated controls
Text: as §3

[14] = system: Amaranthus retroflexus (AMARE); test: Herbicidal post-emergence action, 1280 g/ha, AMARE; settings: visual grading vs untreated controls
Text: as §1, §4

[15] = system: Abutilon theophrasti (ABUTH); test: Herbicidal post-emergence action, 320 g/ha, ABUTH; settings: visual grading after ca. 3 weeks
Text: as §1, §2

[16] = system: Amaranthus retroflexus (AMARE); test: Herbicidal pre-emergence action, 1280 g/ha (Table A11); settings: visual grading after ca. 3 weeks vs untreated controls
Text: as §3

[17] = system: Veronica persica (VERPE); test: Herbicidal post-emergence action, 320 g/ha, VERPE; settings: visual grading after ca. 3 weeks
Text: as §1, §2

[18] = system: Kochia scoparia (KCHSC); test: Herbicidal pre-emergence action, 1280 g/ha (Table A4); settings: visual grading after ca. 3 weeks vs untreated controls
Text: as §3

[19] = system: Kochia scoparia (KCHSC); test: Herbicidal post-emergence action, 320 g/ha, KCHSC; settings: visual grading after ca. 3 weeks
Text: as §1, §2

[20] = system: Poa annua (POAAN); test: Herbicidal pre-emergence action, 1280 g/ha (Table A7); settings: visual grading after ca. 3 weeks vs untreated controls
Text: as §3

[21] = system: Stellaria media (STEME); test: Herbicidal pre-emergence action, 320 g/ha, STEME; settings: visual grading after ca. 3 weeks
Text: as §3, with “plants).” for “plants). Tables A1 to A11 below, show the effects of selected compounds of the general formula (I) according to Table 1 on various harmful plants and an application rate corresponding to 1280 g/ha obtained by the experimental procedure mentioned above.”
Tables C1 to C6 below, show the effects of selected compounds of the general formula (I) according to Table 1 on various harmful plants using an application rate corresponding to 320 g/ha obtained by the experimental procedure mentioned above.

[22] = system: Abutilon theophrasti (ABUTH); test: Herbicidal pre-emergence action, 1280 g/ha (Table A1); settings: visual grading after ca. 3 weeks vs untreated controls
Text: as §3

[23] = system: Lolium rigidum (LOLRI); test: Herbicidal pre-emergence action, 320 g/ha (Table C2); settings: visual grading after ca. 3 weeks vs untreated controls
Text: as §3, with “Tables C1” for “Tables A1”, “to C6” for “to A11”, “plants using” for “plants and”, “to 320” for “to 1280”

[24] = system: Setaria viridis (SETVI); test: Herbicidal pre-emergence action, 1280 g/ha (Table A8); settings: visual grading after ca. 3 weeks vs untreated controls
Text: as §3

Structure (SMILES): CC(=O)Oc1c(C)nn(C)c(=O)c1Oc1ccccc1OC(F)F [Example I-081]
- herbicidal effect LOLRI [1]: 90%
- herbicidal effect MATIN [2]: 100%
- herbicidal effect KCHSC [3]: 100%
- herbicidal effect MATIN [4]: 90%
- herbicidal effect ABUTH [5]: 100%
- herbicidal effect STEME [6]: 90%
- herbicidal effect MATIN [7]: 90%
- herbicidal effect STEME [8]: 90%
- herbicidal effect VERPE [9]: 100%
- herbicidal effect AMARE [10]: 90%
- herbicidal effect STEME [11]: 90%
- herbicidal effect LOLRI [12]: 90%
- herbicidal effect LOLRI [13]: 90%
- herbicidal effect AMARE [14]: 100%
- herbicidal effect ABUTH [15]: 90%

Structure (SMILES): CCOC(=O)Oc1c(C)nn(C)c(=O)c1Oc1ccccc1OC(F)(F)F [Example I-013]
- herbicidal effect MATIN [2]: 100%
- herbicidal effect AMARE [16]: 90%
- herbicidal effect KCHSC [3]: 100%
- herbicidal effect MATIN [4]: 90%
- herbicidal effect ABUTH [5]: 100%
- herbicidal effect STEME [6]: 100%
- herbicidal effect MATIN [7]: 100%
- herbicidal effect VERPE [17]: 90%
- herbicidal effect STEME [8]: 100%
- herbicidal effect VERPE [9]: 100%
- herbicidal effect AMARE [10]: 90%
- herbicidal effect STEME [11]: 100%
- herbicidal effect LOLRI [12]: 100%
- herbicidal effect LOLRI [13]: 100%
- herbicidal effect KCHSC [18]: 90%
- herbicidal effect AMARE [14]: 90%
- herbicidal effect KCHSC [19]: 100%

Structure (SMILES): Cc1nn(C)c(=O)c(Oc2cc(F)c(F)cc2Br)c1O [Example I-087]
- herbicidal effect MATIN [2]: 100%
- herbicidal effect KCHSC [3]: 100%
- herbicidal effect MATIN [4]: 90%
- herbicidal effect ABUTH [5]: 100%
- herbicidal effect VERPE [17]: 90%
- herbicidal effect VERPE [9]: 90%
- herbicidal effect AMARE [10]: 90%
- herbicidal effect LOLRI [13]: 90%
- herbicidal effect AMARE [14]: 100%
- herbicidal effect KCHSC [19]: 90%

Structure (SMILES): CCOC(=O)Oc1c(C)nn(C)c(=O)c1Oc1c(F)cccc1C1CC1 [Example I-085]
- herbicidal effect LOLRI [1]: 90%
- herbicidal effect MATIN [2]: 100%
- herbicidal effect KCHSC [3]: 100%
- herbicidal effect ABUTH [5]: 100%
- herbicidal effect STEME [6]: 90%
- herbicidal effect VERPE [17]: 90%
- herbicidal effect STEME [8]: 100%
- herbicidal effect VERPE [9]: 100%
- herbicidal effect AMARE [10]: 90%
- herbicidal effect STEME [11]: 100%
- herbicidal effect LOLRI [12]: 100%
- herbicidal effect LOLRI [13]: 100%
- herbicidal effect AMARE [14]: 100%
- herbicidal effect ABUTH [15]: 90%

Structure (SMILES): Cc1nn(C)c(=O)c(Oc2ccccc2C(F)(F)F)c1O [Example I-007, 5-hydroxy-2,6-dimethyl-4-[2-(trifluoromethyl)phenoxy]pyridazin-3-one]
- herbicidal effect MATIN [2]: 90%
- herbicidal effect KCHSC [3]: 100%
- herbicidal effect STEME [6]: 100%
- herbicidal effect POAAN [20]: 100%
- herbicidal effect STEME [8]: 100%
- herbicidal effect VERPE [9]: 90%
- herbicidal effect AMARE [10]: 90%
- herbicidal effect LOLRI [12]: 90%
- herbicidal effect LOLRI [13]: 90%
- herbicidal effect AMARE [14]: 90%

Structure (SMILES): Cc1nn(C)c(=O)c(Oc2cc(F)ccc2C2CC2)c1O [Example I-046]
- herbicidal effect MATIN [2]: 100%
- herbicidal effect AMARE [16]: 90%
- herbicidal effect KCHSC [3]: 90%
- herbicidal effect MATIN [4]: 90%
- herbicidal effect STEME [21]: 100%
- herbicidal effect ABUTH [5]: 100%
- herbicidal effect STEME [6]: 100%
- herbicidal effect MATIN [7]: 90%
- herbicidal effect VERPE [17]: 90%
- herbicidal effect STEME [8]: 100%
- herbicidal effect VERPE [9]: 100%
- herbicidal effect AMARE [10]: 90%
- herbicidal effect STEME [11]: 90%
- herbicidal effect LOLRI [12]: 100%
- herbicidal effect ABUTH [22]: 90%
- herbicidal effect LOLRI [13]: 100%
- herbicidal effect LOLRI [23]: 90%
- herbicidal effect AMARE [14]: 100%
- herbicidal effect ABUTH [15]: 100%

Structure (SMILES): CCOC(=O)Oc1c(C)nn(C)c(=O)c1Oc1ccccc1C(F)(F)F [Example I-009, [1,3-dimethyl-6-oxo-5-[2-(trifluoromethyl)phenoxy]pyridazin-4-yl] ethyl carbonate]
- herbicidal effect SETVI [24]: 100%

Structure (SMILES): CCOC(=O)Oc1c(C)nn(C)c(=O)c1Oc1cccc(F)c1C1CC1 [Example I-058]
- herbicidal effect LOLRI [1]: 90%
- herbicidal effect MATIN [2]: 100%
- herbicidal effect KCHSC [3]: 100%
- herbicidal effect ABUTH [5]: 100%
- herbicidal effect STEME [6]: 90%
- herbicidal effect STEME [8]: 90%
- herbicidal effect VERPE [9]: 90%
- herbicidal effect AMARE [10]: 90%
- herbicidal effect STEME [11]: 90%
- herbicidal effect LOLRI [12]: 100%
- herbicidal effect LOLRI [13]: 90%
- herbicidal effect KCHSC [18]: 90%
- herbicidal effect AMARE [14]: 90%
- herbicidal effect KCHSC [19]: 90%
- herbicidal effect ABUTH [15]: 90%

Structure (SMILES): Cc1ccccc1Oc1c(O)c(C)nn(C)c1=O [Example I-017]
- herbicidal effect KCHSC [3]: 100%
- herbicidal effect ABUTH [5]: 90%
- herbicidal effect VERPE [17]: 90%
- herbicidal effect VERPE [9]: 90%
- herbicidal effect AMARE [10]: 90%
- herbicidal effect AMARE [14]: 90%
- herbicidal effect ABUTH [15]: 90%
